One assay concerns MC38 tumor bearing mice. Put plainly: MC38 tumor bearing mice, mean tumor volume (Example 7). Format: in vivo. Particulars: DGKzeta inhibitor A′ 3 mg/kg QD p.o., TPP-15285 5 mg/kg BIW i.p. The text has this:
(§1) While the antibody administration was started on day 7 after tumor inoculation, the DGK inhibitor treatment started two days later, on day 9 after tumor inoculation. This schedule was designed to allow the efficient depletion of the Tregs by the anti-mouse CCR8 surrogate antibody before the DGK inhibitor activates the T cells. […] While the antibody administration was started on day 7 after tumor inoculation, the DGK inhibitor treatment started two days later, on day 9 after tumor inoculation. This schedule was designed to allow the efficient depletion of the Tregs by the anti-mouse CCR8 surrogate antibody before the DGK inhibitor activates the T cells. […] While the antibody administration was started on day 7 after tumor inoculation, the DGKalpha and DGKzeta inhibitor treatment started two days later, on day 9 after tumor inoculation. This schedule was designed to allow the efficient depletion of the Tregs by the anti-mouse CCR8 surrogate antibody before the DGK inhibitor activates the T cells. […] The DGKalpha and DGKzeta inhibitor treatment started on day 9 after tumor inoculation.

A further assay concerns IFN-γ. The assay can be described thus: IFN-γ secretion in Colo-800 / MART1 T cell co-culture (ELISA). Particulars: monotherapy 50 nM; 72 hours after start of co-culture. The class given is cell-based, human. (In general: In an ELISA, binding on a coated surface is turned into a signal by an enzyme label.)
In assay [1] the test system is MC38 syngeneic mouse tumor model. The assay can be described thus: MC38 syngeneic mouse tumor model, different dose combination ratios (Example 5). Format: in vivo. Particulars: 3 mg/kg p.o. q.d. each (monotherapy, or 3 mg/kg + 3 mg/kg), day 25 after tumor inoculation. The text has this:
The objective of this study was to observe the effects of combination therapies with DGKzeta and/or DGKalpha inhibitors on the tumor volume in the MC38 syngeneic mouse tumor model upon different dose combination ratios. The following eight treatment groups are included: • 1. Vehicle • 2. […] Treatment was started on ~day 8 after tumor inoculation at ~80-100 mm^3 tumor volume. […] Day 25 after tumor inoculation).

Assay [2] deals with Hepa 1-6 tumor bearing mice. Put plainly: Hepa 1-6 tumor bearing mice, mean tumor volume (Example 8). Particulars: DGKzeta inhibitor A′ 3 mg/kg QD p.o., TPP-15285 5 mg/kg BIW i.p. Format: in vivo.
Text: as §1

A further assay deals with MC38 mouse model. Put plainly: MC38 mouse model, tumor volume, survival and re-challenge (Example 6). The class given is in vivo. To be noted: for inhibition of tumor growth: 3 mg/kg p.o. QD each, versus control group; for Tumor volume: each agent 3 mg/kg, antibodies i.p. BIWx4, DGK inhibitors p.o. QD. The protocol:
In order to study triple combinations or quadruple combinations with anti-CCR8 antibodies, at least one DGK inhibitor and an anti-PD(L)1 antibody, multiple experiments were performed. In order to see the differences in efficacy, the administered amounts for each individual compound or antibody were reduced to 3 mg/kg to avoid full efficacy in a monotherapy setup and to be able to evaluate the efficacy for triple and quadruple combination therapy.
Efficacy in a MC38 mouse model was analyzed in groups with 10 mice each and is shown in Table 6.1 and FIGS. 8, 9 and 10. • TPP-15285 (mIgG2a) is a surrogate antibody for anti-CCR8 antibody TPP-23411 and induces both, ADCC and ADCP. TPP-15285 was administered i.p. at 3 mg/kg with a BIWx4 administration scheme. • TPP-10748 (Iso Ctrl aCCR8) served as isotype control for TPP-15285 (mIgG2a) and was administered i.p. at 3 mg/kg with a BIWx4 administration scheme. • TPP-3911 (Atezo, mIgG1) was used as anti-PD(L)1 antibody (e.g. pembrolizumab surrogate) and was administered i.p. at 3 mg/kg with a BIWx4 administration scheme. • TPP-3267 or TPP-10149 (mIgG1) served as isotype control for anti-PD(L)1 antibody TPP-3911 (mIgGa) and were abbreviated Iso Ctrl aPD(L)1.
Antibody treatment was started on ~day 7 after tumor inoculation at ~80-100 mm^3 tumor volume, i.e. antibody administration occurred on days 7, 10, 14 and 17, after tumor inoculation. DGK inhibitor treatment started two days after the first antibody administration, i.e. on ~day 9 after tumor inoculation, i.e. DGK inhibitor was administered on day 9, 10, 11, 12, 13, 14, 15, 16, 17, 18, 19, 20 and 21 after tumor inoculation. Tumor growth inhibition was measured until tumors reached a size of 1100 mm^3 (approx. Day 20 after tumor inoculation).

[3] abbreviates: Day 0 (day 7 after tumor inoculation), DGKalpha inhibitor A 5 mg/kg QD p.o.
[4] abbreviates: Day 4, DGKalpha inhibitor A 5 mg/kg QD p.o.
Setting [5] is: Day 7, DGKalpha inhibitor A 5 mg/kg QD p.o.
Setting [6] is: Day 11, DGKalpha inhibitor A 5 mg/kg QD p.o.
Setting [7] is: Day 14, DGKalpha inhibitor A 5 mg/kg QD p.o.
[8] abbreviates: Day 18, DGKalpha inhibitor A 5 mg/kg QD p.o.
Where [9] appears, read: Day 0, DGKalpha inhibitor A 5 mg/kg QD p.o.
Where [10] appears, read: Day 20, DGKalpha inhibitor A 5 mg/kg QD p.o.
[11] abbreviates: 4 days after start of treatment.
[12] abbreviates: 7 days after start of treatment.
The mark [13] stands for this setting: 10 days after start of treatment.
Where [14] appears, read: 12 days after start of treatment.
[15] abbreviates: 14 days after start of treatment.
The mark [16] stands for this setting: 17 days after start of treatment.
[17] abbreviates: −1 days after start of treatment (6 days after start of transplantation).

This is an account of results in patent US20260232652A1, “COMBINATIONS OF DGK (DIACYLGLYCEROL KINASE) INHIBITORS” (priority 2023, published 2026).

Entries after “also recorded” stand apart in the source; their conditions may differ.

For `COc1ccc(C(=O)c2sc(N(c3ccc(F)cc3)[C@H](C)C(N)=O)nc2N)cc1` [DGKzeta inhibitor A′, (R)-2-(N-[4-amino-5-(4-methoxybenzoyl)thiazol-2-yl]-4-fluoro-anilino)propanamide], the Mean tumor volume in the assay on MC38 tumor bearing mice (setting [3]) stood at 91.65 mm^3; in the assay with MC38 tumor bearing mice (setting [4]), 216.68 mm^3; in the assay on MC38 tumor bearing mice (setting [5]), 480.5 mm^3; in the assay with MC38 tumor bearing mice (setting [6]) it was 982.9 mm^3; in the assay on MC38 tumor bearing mice (setting [7]) it was 1448.04 mm^3; in the assay with MC38 tumor bearing mice (setting [8]), 2879.9 mm^3. The Mean tumor volume in assay [2] (setting [9]) stood at 88.99 mm^3; in assay [2] (setting [4]), 224.86 mm^3; in assay [2] (setting [5]) it was 429.26 mm^3; in assay [2] (setting [6]), 624.07 mm^3; in assay [2] (setting [7]) it was 799.19 mm^3; in assay [2] (setting [8]), 1001.75 mm^3. In assay [2] (setting [10]), this molecule gave a Mean tumor volume of 1158.6 mm^3. Moreover, the “increase in IFN-γ secretion” value with IFN-γ is given as “moderate”. In addition, the “inhibition of tumor growth” value (in assay [1]; with MC38 mouse model) was “only moderate inhibition of tumor growth” each time. Also, the Tumor volume in the assay on MC38 mouse model (setting [11]) stood at 115.9 mm^3; in the assay on MC38 mouse model (setting [12]), 211.9 mm^3; in the assay on MC38 mouse model (setting [13]), 322.0 mm^3; in the assay on MC38 mouse model (setting [14]) it was 508.0 mm^3; with MC38 mouse model (setting [15]), 684.4 mm^3; in the assay on MC38 mouse model (setting [16]), 1097.3 mm^3. In addition, the Tumor volume with MC38 mouse model (setting [17]) is given as 62.4 mm^3.

For `Cc1ccc2oc(C3CCN(c4c(C(N)=O)c(=O)n(C)c5ccc(F)cc45)CC3)nc2c1` [DGKalpha inhibitor A, 6-fluoro-1-methyl-4-[4-(5-methyl-1,3-benzoxazol-2-yl)piperidin-1-yl]-2-oxo-1,2-dihydroquinoline-3-carboxamide], the Mean tumor volume in the assay on MC38 tumor bearing mice (setting [3]) is 91.74 mm^3; with MC38 tumor bearing mice (setting [4]), 216.59 mm^3; with MC38 tumor bearing mice (setting [5]), 483.4 mm^3; with MC38 tumor bearing mice (setting [6]), 1057.04 mm^3; with MC38 tumor bearing mice (setting [7]) it was 1585.28 mm^3; in the assay on MC38 tumor bearing mice (setting [8]) it was 2961.81 mm^3. For the same molecule, the Mean tumor volume in assay [2] (setting [9]) stood at 88.99 mm^3; in assay [2] (setting [4]), 186.75 mm^3; in assay [2] (setting [5]) it was 321.40 mm^3; in assay [2] (setting [6]), 461.93 mm^3; in assay [2] (setting [7]), 569.94 mm^3; in assay [2] (setting [8]), 787.30 mm^3. Also, the Mean tumor volume in assay [2] (setting [10]) worked out at 957.86 mm^3. In the assay with IFN-γ, the “increase in IFN-γ secretion” value is given as “slight”. The results for the “inhibition of tumor growth” value (in assay [1]; with MC38 mouse model) were “only moderate inhibition of tumor growth; also recorded: no single agent activity” and “only moderate inhibition of tumor growth”, respectively. The Tumor volume with MC38 mouse model (setting [11]) was 134.0 mm^3; with MC38 mouse model (setting [12]), 207.0 mm^3; with MC38 mouse model (setting [13]) it was 412.4 mm^3; in the assay on MC38 mouse model (setting [14]) it was 524.8 mm^3; in the assay with MC38 mouse model (setting [15]) it was 735.4 mm^3; in the assay with MC38 mouse model (setting [16]), 1122.5 mm^3. For the same molecule, the Tumor volume in the assay with MC38 mouse model (setting [17]) came to 62.0 mm^3.
